Patent publication US20200165291A1, “NEUROACTIVE STEROIDS, COMPOSITIONS, AND USES THEREOF” (Sage Therapeutics, Inc., priority 2014, published 2020)
Like-named read-outs stand apart in the source and are kept apart here.

Key:
[1] = target: T1, recombinant α1β2γ2 GABAA receptors (Homo sapiens, UniProt P14867+P47870); assay: Patch clamp electrophysiology, QPatch, LTK cells; type: cell-based; conditions: 10 μM test article, GABA EC20 = 2 μM, read-out: GABA (α1β2γ2) Qpatch in Ltk, % efficacy at 10 μM
T1 construct: expressed in transfected cells

[2] = target: [35S]-TBPS binding, rat brain cortical membranes (GABA receptor complex); assay: [35S]-TBPS binding (steroid inhibition of TBPS binding); conditions: in the presence of 5 μM GABA, read-out: 35S-TBPS Radioligand Displacement
Method: [35S]-t-Butylbicyclophosphorothionate (TBPS) binding assays using rat brain cortical membranes in the presence of 5 μM GABA has been described (Gee et al, J. Pharmacol. Exp. Ther. 1987, 241, 346-353; Hawkinson et al, Mol. Pharmacol. 1994, 46, 977-985; Lewin, A. H et al., Mol. Pharmacol. 1989, 35, 189-194).
Briefly, cortices are rapidly removed following decapitation of carbon dioxide-anesthetized Sprague-Dawley rats (200-250 g). The cortices are homogenized in 10 volumes of ice-cold 0.32 M sucrose using a glass/teflon homogenizer and centrifuged at 1500×g for 10 min at 4° C. The resultant supernatants are centrifuged at 10,000×g for 20 min at 4° C. to obtain the P2 pellets. The P2 pellets are resuspended in 200 mM NaCl/50 mM Na-K phosphate pH 7.4 buffer and centrifuged at 10,000×g for 10 min at 4° C. This washing procedure is repeated twice and the pellets are resuspended in 10 volumes of buffer. Aliquots (100 μL) of the membrane suspensions are incubated with 3 nM [^35S]-TBPS and 5 μL aliquots of test drug dissolved in dimethyl sulfoxide (DMSO) (final 0.5%) in the presence of 5 μM GABA. The incubation is brought to a final volume of 1.0 mL with buffer. Nonspecific binding is determined in the presence of 2 μM unlabeled TBPS and ranged from 15 to 25%. Following a 90 min incubation at room temp, the assays are terminated by filtration through glass fiber filters (Schleicher and Schuell No. 32) using a cell harvester (Brandel) and rinsed three times with ice-cold buffer. Filter bound radioactivity is measured by liquid scintillation spectrometry. Non-linear curve fitting of the overall data for each drug averaged for each concentration is done using Prism (GraphPad). […] The concentration of test compound producing 50% inhibition (IC50) of specific binding and the maximal extent of inhibition (Imax) are determined for the individual experiments with the same model used for the overall data and then the means±SEM.s of the individual experiments are calculated.
Various compounds are or can be screened to determine their potential as modulators of [^35S]-TBPS binding in vitro. These assays are or can be performed in accordance with the above discussed procedures.

T1 sequence (P14867 28-456): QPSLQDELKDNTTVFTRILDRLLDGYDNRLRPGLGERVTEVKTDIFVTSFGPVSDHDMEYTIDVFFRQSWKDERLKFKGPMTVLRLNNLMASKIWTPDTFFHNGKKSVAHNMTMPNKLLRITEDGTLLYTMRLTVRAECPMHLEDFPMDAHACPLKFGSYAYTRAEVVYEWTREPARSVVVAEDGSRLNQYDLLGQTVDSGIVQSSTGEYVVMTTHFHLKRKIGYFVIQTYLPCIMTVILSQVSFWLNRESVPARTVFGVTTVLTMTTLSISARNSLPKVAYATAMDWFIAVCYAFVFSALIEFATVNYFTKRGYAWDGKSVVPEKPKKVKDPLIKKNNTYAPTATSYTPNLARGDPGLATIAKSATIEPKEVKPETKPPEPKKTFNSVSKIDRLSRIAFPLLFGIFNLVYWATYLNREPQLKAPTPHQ
T1 sequence (P47870 25-512 limits assumed): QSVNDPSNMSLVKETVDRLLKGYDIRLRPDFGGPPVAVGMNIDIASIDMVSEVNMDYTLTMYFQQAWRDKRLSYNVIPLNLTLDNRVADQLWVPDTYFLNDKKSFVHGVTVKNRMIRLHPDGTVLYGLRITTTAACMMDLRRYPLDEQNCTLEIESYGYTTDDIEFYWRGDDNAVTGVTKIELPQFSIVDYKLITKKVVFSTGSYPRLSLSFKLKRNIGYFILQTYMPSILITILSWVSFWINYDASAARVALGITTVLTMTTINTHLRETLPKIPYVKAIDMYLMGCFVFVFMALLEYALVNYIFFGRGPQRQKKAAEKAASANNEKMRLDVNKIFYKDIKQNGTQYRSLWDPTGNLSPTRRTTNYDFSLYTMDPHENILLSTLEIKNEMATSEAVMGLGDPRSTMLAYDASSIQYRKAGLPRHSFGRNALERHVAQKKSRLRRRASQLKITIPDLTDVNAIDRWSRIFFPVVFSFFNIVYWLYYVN
T1 sequence (P18507 40-475 partner): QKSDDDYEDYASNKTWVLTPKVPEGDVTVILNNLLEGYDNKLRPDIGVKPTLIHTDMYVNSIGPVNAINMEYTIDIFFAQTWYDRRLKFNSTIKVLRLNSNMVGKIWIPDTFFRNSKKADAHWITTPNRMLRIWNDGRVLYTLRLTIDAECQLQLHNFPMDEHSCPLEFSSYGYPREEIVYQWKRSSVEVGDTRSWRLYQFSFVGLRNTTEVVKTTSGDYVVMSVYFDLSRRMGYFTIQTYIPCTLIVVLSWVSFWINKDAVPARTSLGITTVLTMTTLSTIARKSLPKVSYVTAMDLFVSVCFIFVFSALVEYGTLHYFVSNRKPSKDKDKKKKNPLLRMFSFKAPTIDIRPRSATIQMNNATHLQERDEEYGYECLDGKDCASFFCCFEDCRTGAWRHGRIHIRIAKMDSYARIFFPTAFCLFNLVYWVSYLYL

SMILES | Emax at 10 µM [1] | IC50 [2] | Emax at 10 µM ([1]; in cremophor)
CCOC[C@@]1(O)CC[C@H]2[C@@H](CC[C@@H]3[C@@H]2CC[C@]2(C)[C@@H](C(=O)Cn4nccn4)CC[C@@H]32)C1 [SQ-2] | 100 to 500% |  | 
C[C@]12CC[C@H]3[C@@H](CC[C@@H]4C[C@@](O)(CF)CC[C@@H]43)[C@@H]1CC[C@@H]2C(=O)Cn1ccnn1 [SF-4] | 100 to 500% | 0.1 to 0.5 µM | 
CCO[C@H]1C[C@H]2[C@@H](CC[C@@H]3[C@@H]2CC[C@]2(C)[C@@H](C(=O)Cn4ccnn4)CC[C@@H]32)C[C@]1(C)O [SY-1] | 100 to 500% | 0.1 to 0.5 µM | 
C[C@@]1(O)CC[C@H]2[C@H](CC[C@@H]3[C@@H]2CC[C@]2(C)[C@@H](C(=O)Cn4cc(C#N)nn4)CC[C@@H]32)C1 [SA-20] |  |  | 100 to 500%
C[C@@H]1C[C@H]2[C@@H](CC[C@@H]3[C@@H]2CC[C@]2(C)[C@@H](C(=O)Cn4ccnn4)CC[C@@H]32)C[C@]1(C)O [SN-1] | 100 to 500% | 0.05 to 0.1 µM | 
CC[C@@]1(O)CC[C@H]2[C@H](CC[C@@H]3[C@@H]2CC[C@]2(C)[C@@H](C(=O)Cn4nnc(C)n4)CC[C@@H]32)C1 [SE-6] | 10 to 100% | > 0.5 µM | 
CC[C@@]1(O)CC[C@H]2[C@H](CC[C@@H]3[C@@H]2CC[C@]2(C)[C@@H](C(=O)Cn4ccnn4)CC[C@@H]32)C1 [SE-3] | 100 to 500% | 0.1 to 0.5 µM | 
CO[C@H]1C[C@H]2[C@@H](CC[C@@H]3[C@@H]2CC[C@]2(C)[C@@H](C(=O)Cn4ccnn4)CC[C@@H]32)C[C@]1(C)O [SU-1] | 100 to 500% | 0.1 to 0.5 µM | 
CO[C@@H]1C[C@@H]2[C@H](CC[C@]3(C)[C@@H](C(=O)Cn4nccn4)CC[C@@H]23)[C@H]2CC[C@@](C)(O)C[C@H]21 [SL-2] | 10 to 100% | > 0.5 µM | 
Cc1cn(CC(=O)[C@H]2CC[C@H]3[C@@H]4C[C@@H](F)[C@H]5C[C@](C)(O)CC[C@@H]5[C@H]4CC[C@]23C)nn1 [SV-8] | > 500% |  | 
CO[C@@H]1C[C@@H]2[C@H](CC[C@]3(C)[C@@H](C(=O)Cn4ccnn4)CC[C@@H]23)[C@H]2CC[C@@](C)(O)C[C@@H]21 [SW-1] | 100 to 500% | > 0.5 µM | 
CC[C@@]1(O)CC[C@H]2[C@@H](CC[C@@H]3[C@@H]2CC[C@]2(C)[C@@H](C(=O)Cn4nnc(C)n4)CC[C@@H]32)C1 [SP-5] | 100 to 500% |  | 
CC[C@@]1(O)CC[C@H]2[C@H](CC[C@@H]3[C@@H]2CC[C@]2(C)[C@@H](C(=O)Cn4nnnc4C)CC[C@@H]32)C1 [SE-5] |  | > 0.5 µM | 
CC[C@@]1(O)CC[C@H]2[C@H](CC[C@@H]3[C@@H]2CC[C@]2(C)[C@@H](C(=O)Cn4cnnn4)CC[C@@H]32)C1 [SE-1] | 100 to 500% |  | 
CC[C@@]1(O)CC[C@H]2[C@H](CC[C@@H]3[C@@H]2CC[C@]2(C)[C@@H](C(=O)Cn4ncnn4)CC[C@@H]32)C1 [SE-2] | > 500% |  | 
C[C@@]1(O)CC[C@@H]2[C@H]3CC[C@]4(C)[C@@H](C(=O)Cn5ccnn5)CC[C@H]4[C@@H]3C[C@@H](F)[C@@H]2C1 [SH-1] |  | > 0.5 µM | 
CCOC[C@@]1(O)CC[C@H]2[C@@H](CC[C@@H]3[C@@H]2CC[C@]2(C)[C@@H](C(=O)Cn4nnc(C)n4)CC[C@@H]32)C1 [SQ-6] | 100 to 500% |  | 
Cc1cn(CC(=O)[C@H]2CC[C@H]3[C@@H]4CC[C@@H]5C[C@](C)(O)CC[C@@H]5[C@H]4CC[C@]23C)nn1 [SA-5] | > 500% |  | 
CC[C@@]1(O)CC[C@H]2[C@@H](CC[C@@H]3[C@@H]2CC[C@]2(C)[C@@H](C(=O)Cn4ccnn4)CC[C@@H]32)C1 [SP-1] |  | > 0.5 µM | 
C[C@]12CC[C@H]3[C@@H](CC[C@H]4C[C@@](O)(CF)CC[C@@H]43)[C@@H]1CC[C@@H]2C(=O)Cn1cnnn1 [SD-4] | 100 to 500% | > 0.5 µM | 
CCOC[C@@]1(O)CC[C@H]2[C@@H](CC[C@@H]3[C@@H]2CC[C@]2(C)[C@@H](C(=O)Cn4cnnn4)CC[C@@H]32)C1 [SQ-4] | 100 to 500% |  | 

SMILES | Emax at 10 µM [1] | IC50 [2] | Emax at 10 µM ([1]; in cremophor)
Cc1cnn(CC(=O)[C@H]2CC[C@H]3[C@@H]4C[C@@H](F)[C@H]5C[C@](C)(O)CC[C@@H]5[C@H]4CC[C@]23C)n1 [SV-7] | 100 to 500% |  | 
COC[C@@]1(O)CC[C@H]2[C@H](CC[C@@H]3[C@@H]2CC[C@]2(C)[C@@H](C(=O)Cn4cnnn4)CC[C@@H]32)C1 [SM-1] | 100 to 500% | 0.1 to 0.5 µM | 
Cc1nnn(CC(=O)[C@H]2CC[C@H]3[C@@H]4CC[C@H]5C[C@@](O)(CF)CC[C@@H]5[C@H]4CC[C@]23C)n1 [SD-3] | 100 to 500% |  | 
CCOC[C@@]1(O)CC[C@H]2[C@H](CC[C@@H]3[C@@H]2CC[C@]2(C)[C@@H](C(=O)Cn4nnnc4C)CC[C@@H]32)C1 [SO-1] | 100 to 500% |  | 
CCOC[C@@]1(O)CC[C@H]2[C@H](CC[C@@H]3[C@@H]2CC[C@]2(C)[C@@H](C(=O)Cn4nnc(C)n4)CC[C@@H]32)C1 [SO-2] |  | > 0.5 µM | 
C[C@@]1(O)CC[C@H]2[C@H](CC[C@@H]3[C@@H]2CC[C@]2(C)[C@@H](C(=O)Cn4cncn4)CC[C@@H]32)C1 [SA-1] | 100 to 500% | 0.1 to 0.5 µM | 
Cc1nnn(CC(=O)[C@H]2CC[C@H]3[C@@H]4CC[C@@H]5C[C@@](O)(C(F)F)CC[C@@H]5[C@H]4CC[C@]23C)n1 [SG-4] | 100 to 500% |  | 
CO[C@@H]1C[C@@H]2[C@H](CC[C@]3(C)[C@@H](C(=O)Cn4nccn4)CC[C@@H]23)[C@H]2CC[C@@](C)(O)C[C@@H]21 [SW-2] |  | > 0.5 µM | 
CC[C@@]1(O)CC[C@H]2[C@@H](CC[C@@H]3[C@@H]2CC[C@]2(C)[C@@H](C(=O)Cn4ncnn4)CC[C@@H]32)C1 [SP-3] | 100 to 500% |  | 
CC[C@@]1(O)CC[C@H]2[C@@H](CC[C@@H]3[C@@H]2CC[C@]2(C)[C@@H](C(=O)Cn4nnnc4C)CC[C@@H]32)C1 [SP-4] | 10 to 100% | > 0.5 µM | 
C[C@]12CC[C@H]3[C@@H](CC[C@H]4C[C@@](O)(CF)CC[C@@H]43)[C@@H]1CC[C@@H]2C(=O)Cn1ccnn1 [SD-1] |  | > 0.5 µM | 
Cc1nnnn1CC(=O)[C@H]1CC[C@H]2[C@@H]3CC[C@@H]4C[C@@](O)(C(F)F)CC[C@@H]4[C@H]3CC[C@]12C [SG-3] | 100 to 500% |  | 
CCOC[C@@]1(O)CC[C@H]2[C@@H](CC[C@@H]3[C@@H]2CC[C@]2(C)[C@@H](C(=O)Cn4nnnc4C)CC[C@@H]32)C1 [SQ-5] |  | > 0.5 µM | 
C[C@@]1(O)CC[C@H]2[C@H](CC[C@@H]3[C@@H]2CC[C@]2(C)[C@@H](C(=O)Cn4nnc(C(F)(F)F)n4)CC[C@@H]32)C1 [SA-8] | 100 to 500% |  | 
C[C@]12CC[C@H]3[C@@H](CC[C@H]4C[C@@](O)(C(F)F)CC[C@@H]43)[C@@H]1CC[C@@H]2C(=O)Cn1ccnn1 [SS-1] |  | 0.1 to 0.5 µM | 
COC[C@@]1(O)CC[C@H]2[C@H](CC[C@@H]3[C@@H]2CC[C@]2(C)[C@@H](C(=O)Cn4nnc(C)n4)CC[C@@H]32)C1 [SM-4] | > 500% |  | 
Cc1cnnn1CC(=O)[C@H]1CC[C@H]2[C@@H]3C[C@@H](F)[C@H]4C[C@](C)(O)CC[C@@H]4[C@H]3CC[C@]12C [SV-9] | 100 to 500% |  | 
CCOC[C@@]1(O)CC[C@H]2[C@@H](CC[C@@H]3[C@@H]2CC[C@]2(C)[C@@H](C(=O)Cn4ccnn4)CC[C@@H]32)C1 [SQ-1] |  | > 0.5 µM | 
COC[C@@]1(O)CC[C@H]2[C@H](CC[C@@H]3[C@@H]2CC[C@]2(C)[C@@H](C(=O)Cn4nnnc4C)CC[C@@H]32)C1 [SM-3] | > 500% |  | 
Cc1nnnn1CC(=O)[C@H]1CC[C@H]2[C@@H]3CC[C@H]4C[C@@](O)(CF)CC[C@@H]4[C@H]3CC[C@]12C [SD-2] | 100 to 500% |  | 
CCOC[C@@]1(O)CC[C@H]2[C@@H](CC[C@@H]3[C@@H]2CC[C@]2(C)[C@@H](C(=O)Cn4ncnn4)CC[C@@H]32)C1 [SQ-3] | > 500% |  | 
